In patent US8283358B2, “N-sulfonamido polycyclic pyrazolyl compounds” (Elan Pharmaceuticals, Inc., priority 2008, dated 2012):
Like-named read-outs stand apart in the source and are kept apart here.

Target: T1, gamma-secretase (partially purified extract of IMR-32 cell membranes; substrate MBP-C125 Swe fusion protein, cleavage at the Aβ40 site) (Homo sapiens, UniProt P49768)
T1 construct: a partially purified extract of IMR-32 cell membranes as the gamma-secretase enzyme preparation; endogenous in cells; host or cells: IMR-32 cell membranes, partially purified extract
Assay: Gamma-secretase APP enzyme assay (Example A)
Format: biochemical
Conditions: assay described in Example A
Source text: The gamma-secretase APP enzyme assay was designed to measure the specific proteolytic cleavage of an APP substrate (MBP-C125 Swe fusion protein) at the Aβ40 site. […] This assay involved two steps beginning with the enzymatic reaction generating a cleavage product that was captured with an immobilized antibody specific for the neo-epitope Aβ40 site. The captured cleavage product was then detected in a sandwich ELISA assay with a biotinylated reporter antibody that is specific to Aβ(17-28). Streptavidin-linked alkaline phosphatase was then added that would generate a fluorescent signal proportional to the amount of cleavage product.
This warmed solution of BigCHAPS (N,N-Bis(3-D-gluconamidopropyl)cholamide) detergent was used to dissolve Brain Extract Type-V (lipid containing a minimum of 40% phosphatidylethanolamine) from Sigma (St. Louis, Mo.) to a concentration of 8 mg/ml. This solution containing BigCHAPS and lipid at 8 mg/ml is then diluted to 0.53 mg/ml lipid with a pre-warmed solution of Hepes and sodium chloride.
Gamma-secretase was then added to a 96-well micro-titre plate and then incubated with various concentrations of inhibitor for 30 minutes at 37° C. MBPC125 substrate was then added to initiate the reaction that would run for two hours at 37° C. The reaction was quenched with the addition of SDS to a final concentration of 0.1% and then 100 μl of the reaction mixture was transferred to a capture ELISA plate and incubated overnight at 4° C. Detection of the cleavage product was performed using a standard sandwich ELISA assay and quantified using a six point standard curve.

[1] = class symbols, read-out: γAPP IC50
[2] = numeric bounds given instead of class symbols, read-out: γAPP IC50

Row | IC50 [1] [nM] | Structure (SMILES) | further results
1 | < 100 | O=S(=O)(c1ccc(C(F)(F)F)cc1)N1C2Cc3[nH]ncc3C1c1ccccc12 (racemic) [compound 73] | 
2 | < 100 | O=S(=O)(c1ccc(C(F)(F)F)nc1)N1C2Cc3[nH]ncc3C1c1cccc(Cl)c12 (stereo not drawn) [compound 228] | 
3 | < 100 | O=C1c2[nH]ncc2C2c3c(F)cccc3C1N2S(=O)(=O)c1ccc(Cl)cc1 (stereo not drawn) [compound 236] | 
4 | > 1000 | N#Cc1ccc2c(c1)C1Cc3n[nH]cc3C2N1S(=O)(=O)c1ccc(C(F)(F)F)nc1 (single isomer, unassigned) [compound 172] | 
5 | < 100 | O=S(=O)(c1ccc(C(F)(F)F)nc1)N1C2Cc3n[nH]cc3C1c1cccc(F)c12 (single isomer, unassigned) [compound 185] | 
6 | < 100 | CO/N=C1\c2[nH]ncc2C2c3cccc(Cl)c3C1N2S(=O)(=O)c1ccc(C(F)(F)F)nc1 (stereo not drawn) [compound 269] | 
7 | < 100 | O=S(=O)(c1ccc(C(F)(F)F)cn1)N1C2Cc3[nH]ncc3C1c1c(F)cccc12 (racemic) [compound 211] | 
8 | < 100 | O=S(=O)(c1ccc(C(F)(F)F)nc1)N1C2Cc3ccccc3C1c1c[nH]nc1C2 (stereo not drawn) [compound 88] | 
9 | < 100 | O=S(=O)(c1ccc(C(F)(F)F)nc1)N1C2c3cc(F)c(F)cc3C1C(F)(F)c1[nH]ncc12 (racemic) [compound 157] | 
10 | < 100 | O=S(=O)(c1ccc(C(F)(F)F)cc1)N1C2c3c[nH]nc3C(F)(F)C1c1c(F)cccc12 (stereo not drawn) [compound 121] | 
11 | < 100 | O=S(=O)(c1ccc(Cl)cc1)N1C2Cc3[nH]ncc3C1CC(c1ccncn1)C2 (stereo not drawn) [compound 107] | 
12 | < 100 | O=S(=O)(c1ccc(C(F)(F)F)nc1)N1C2Cc3cccc(Br)c3C1c1cn[nH]c1C2 (stereo not drawn) [compound 218] | 
13 | 500 to 999 | Cc1nc(C2CC3Cc4[nH]ncc4C(C2)N3S(=O)(=O)c2ccc(C(F)(F)F)cc2)n(C)n1 (racemic) [compound 80] | 
14 | < 100 | O=S(=O)(c1ccc(C(F)(F)F)nc1)N1C2Cc3n[nH]cc3C1c1cccc(F)c12 (stereo not drawn) [compound 183] | 
15 | < 100 | O=S(=O)(c1ccc(C(F)(F)F)cc1)N1C2Cc3n[nH]cc3C1CC(c1cccc(Br)c1)C2 (stereo not drawn) [compound 125] | 
16 | < 100 | O=S(=O)(c1ccc(C(F)(F)F)cc1)N1C2Cc3[nH]ncc3C1CC(c1ccc(-c3cscn3)cc1)C2 (stereo not drawn) [compound 116] | 
17 | < 100 | C=C1c2[nH]ncc2C2c3cccc(Cl)c3C1N2S(=O)(=O)c1ccc(C(F)(F)F)nc1 (stereo not drawn) [compound 272] | 
18 | 100 to 499 | COC(=O)c1cccc2c1C1Cc3[nH]ncc3C2N1S(=O)(=O)c1ccc(C(F)(F)F)nc1 (stereo not drawn) [compound 227] | 
19 | < 100 | O=S(=O)(c1ccc(C(F)(F)F)nc1)N1C2Cc3n[nH]cc3C1c1c(F)ccc(F)c12 (stereo not drawn) [compound 131] | 
20 | < 100 | O=S(=O)(c1ccc(C(F)(F)F)cc1)N1C2Cc3c(-c4ccc(F)cc4)cccc3C1Cc1[nH]ncc12 (racemic) [compound 165] | 
21 | < 100 | O=S(=O)(c1ccc(C(F)(F)F)nc1)N1C2Cc3[nH]ncc3C1c1cc(O)ccc12 (racemic) [compound 225] | 
22 | < 100 | O=S(=O)(c1ccc(C(F)(F)F)nc1)N1C2Cc3[nH]ncc3C1c1cc(F)ccc12 (single isomer, unassigned) [compound 180] | 
23 | < 100 | COC(=O)c1cccc2c1C1Cc3[nH]ncc3C2N1S(=O)(=O)c1ccc(C(F)(F)F)nc1 (stereo not drawn) [compound 226] | 
24 | 500 to 999 | O=S(=O)(c1ccc(C(F)(F)F)nc1)N1C2Cc3[nH]ncc3C1c1ccc(Cl)cc12 (single isomer, unassigned) [compound 223] | 
25 | < 100 | O=S(=O)(c1ccc(C(F)(F)F)cc1)N1C2Cc3n[nH]cc3C1C(C1CC1)C2 (stereo not drawn) [compound 45] | 
26 | > 1000 | O=S(=O)(c1ccc(C(F)(F)F)cc1)N1C2Cc3[nH]ncc3C1c1cnccc12 (stereo not drawn) [compound 120] | 

The remaining lines, values behind:

Row | Structure (SMILES) | IC50 [1] [nM] | further results
27 | O=S(=O)(c1ccc(C(F)(F)F)cc1)N1C2Cc3[nH]ncc3C1c1ccccc12 (stereo not drawn) [compound 72] | > 1000 | 
28 | O=S(=O)(c1ccc(C(F)(F)F)nc1)N1C2Cc3cccc(Br)c3C1Cc1[nH]ncc12 (stereo not drawn) [compound 213] | 100 to 499 | 
29 | O=S(=O)(c1ccc(C(F)(F)F)nc1)N1C2Cc3[nH]ncc3C1c1cccc(C3CC3)c12 (racemic) [compound 270] | < 100 | 
30 | O=S(=O)(c1ccc(C(F)(F)F)cc1)N1C2Cc3[nH]ncc3C1c1ccc(C(F)(F)F)cc12 (racemic) [compound 156] | < 100 | 
31 | O=S(=O)(c1ccc(C(F)(F)F)nc1)N1C2Cc3[nH]ncc3C1c1nc(C3CC3)ccc12 (stereo not drawn) [compound 256] | > 1000 | 
32 | O=S(=O)(c1ccc(C(F)(F)F)nc1)N1C2Cc3[nH]ncc3C1c1cc(Br)ccc12 (stereo not drawn) [compound 251] | 100 to 499 | 
33 | Cn1ncc(C2CC3Cc4[nH]ncc4C(C2)N3S(=O)(=O)c2ccc(Cl)cc2)n1 (stereo not drawn) [compound 139] |  | IC50 [2]: > 300 nM
34 | O=S(=O)(c1ccc(C(F)(F)F)nc1)N1C2Cc3[nH]ncc3C1c1ccc(Cl)cc12 (single isomer, unassigned) [compound 224] | < 100 | 
35 | O=S(=O)(c1ccc(C(F)(F)F)nc1)N1C2Cc3[nH]ncc3C1c1c(-c3ccc(F)cc3)cccc12 (racemic) [compound 273] |  | IC50 [2]: > 100 nM
36 | O=S(=O)(c1ccc(C(F)(F)F)cc1)N1C2Cc3n[nH]cc3C1c1c(F)cccc12 (single isomer, unassigned) [compound 114] |  | IC50 (γAPP IC50 (nM), class symbols): 500 to 999 nM
37 | O=S(=O)(c1ccc(C(F)(F)F)nc1)N1C2c3c[nH]nc3[C@H](F)C1c1cccc(F)c12 (stereo partly drawn) [compound 207] | < 100 | 
38 | O=c1oc2cc3c(cc2o1)C1c2cn[nH]c2CC3N1S(=O)(=O)c1ccc(C(F)(F)F)cc1 (racemic) [compound 109] |  | IC50 [2]: > 100 nM
39 | Cn1ncc(C2CC3Cc4[nH]ncc4C(C2)N3S(=O)(=O)c2ccc(Cl)cc2)n1 (stereo not drawn) [compound 140] | 100 to 499 | 
40 | O=S(=O)(c1ccc(C(F)(F)F)nc1)N1C2Cc3[nH]ncc3C1c1cc(Br)ccc12 (stereo not drawn) [compound 250] | < 100 | 
41 | O=S(=O)(c1ccc(C(F)(F)F)cc1)N1C2Cc3[nH]ncc3C1c1ccc3ccccc3c12 (stereo not drawn) [compound 168] | < 100 | 
42 | O=S(=O)(c1ccc(C(F)(F)F)cc1)N1C2Cc3n[nH]cc3C1c1c(F)cccc12 (stereo not drawn) [compound 96] |  | IC50 (γAPP IC50 (nM), class symbols): < 100 nM
43 | O=S(=O)(c1ccc(C(F)(F)F)nc1)N1C2Cc3n[nH]cc3C1c1c(F)cccc12 (stereo not drawn) [compound 129] |  | IC50 (γAPP IC50 (nM), numeric bounds given instead of class symbols): > 10 nM
44 | O=C1c2[nH]ncc2C2c3c(F)cccc3C1N2S(=O)(=O)c1ccc(Cl)cc1 (stereo not drawn) [compound 242] | < 100 | 
45 | O=S(=O)(c1ccc(C(F)(F)F)cc1)N1C2c3cn[nH]c3C(F)C1c1cccc(F)c12 (single isomer, unassigned) [compound 263] | < 100 | 
46 | O=S(=O)(c1ccc(C(F)(F)F)cc1)N1C2Cc3[nH]ncc3C1Cc1ccccc12 (racemic) [compound 163] | < 100 | 
47 | O=S(=O)(c1ccc(C(F)(F)F)cc1)N1C2Cc3[nH]ncc3C1c1cc(F)c(F)cc12 (stereo not drawn) [compound 95] | < 100 | 
48 | O=S(=O)(c1ccc(C(F)(F)F)nc1)N1C2Cc3[nH]ncc3C1c1ncc(F)cc12 (single isomer, unassigned) [compound 260] |  | IC50 (γAPP IC50 (nM), class symbols): < 100 nM
49 | O=S(=O)(c1ccc(C(F)(F)F)nc1)N1C2Cc3n[nH]cc3C1c1ncsc12 (stereo not drawn) [compound 187] |  | IC50 (γAPP IC50 (nM), class symbols): 100 to 499 nM
50 | O=S(=O)(c1ccc(C(F)(F)F)nc1)N1C2Cc3[nH]ncc3C1c1ccccc12 (stereo not drawn) [compound 98] | < 100 | 
51 | O=S(=O)(c1ccc(C(F)(F)F)nc1)N1C2Cc3n[nH]cc3C1c1c(F)ccc(F)c12 (stereo not drawn) [compound 150] | < 100 | 
